Assay results: article PMC12198282, “Application of a high-density microelectrode array assay using a 3D human iPSC-derived brain microphysiological system model for in vitro neurotoxicity screening of environmental compounds” (Archives of Toxicology, 2025)
Where two headings read alike, the source gives them in different places.

How the values were obtained:
[1] = tested on: human iPSC-derived 3D BrainSpheres; experiment: BrainSphere MEA assay (HD-MEA, 13-day exposure, concentration-response); format: cell-based; settings: for EC (benchmark response 1.349 SD): 312 h; for hitc Mean.Spheroid.Burst.Duration: key: 1 (active); 0 (inactive); for hitc Mean.Spheroid.Burst.ISI: key: 1 (active); 0 (inactive); for hitc Mean.Spheroid.Burst.Peak.Firing.Rate: key: 1 (active); 0 (inactive); for hitc Mean.Spheroid.Firing.Rate: key: 1 (active); 0 (inactive); for hitc Mean.Spheroid.IBI: key: 1 (active); 0 (inactive); for hitc Mean.Spheroid.Nonburst.ISI: key: 1 (active); 0 (inactive); for hitc Mean.Spheroid.Spikes.per.Burst.per.Electrode: key: 1 (active); 0 (inactive); for hitc Mean.Spheroid.Spikes.per.Burst: key: 1 (active); 0 (inactive); for hitc Spheroid.Burst.Frequency: key: 1 (active); 0 (inactive); for hitc Spheroid.Spike.Amplitude.90th.Percentile: key: 1 (active); 0 (inactive)
How it was run: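 Recordings used a 5× RMS spike threshold and 600 s network scans of fixed electrode regions, each region clustered as one BrainSphere. Spheres had 7 weeks of differentiation and 48 h attachment on coated HD-MEA chips before day 0 of the 13-day concentration-response exposure. At least three independent plates were run.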

[2] = tested on: co-culture of iPSC-derived excitatory and inhibitory neurons, and primary human astrocytes; set-up: method as in Bartmann et al. [2023]; settings: ref Bartmann et al. [2023], cited from earlier work
2D rat cortical cultures = settings: cytotoxicity LDH, cited from earlier work
[3] = AUC over 13-day exposure, tcplfit2
[4] = tcplfit2 BMD at benchmark response (1.349*SD of baseline controls)
[5] = tcplfit2 output ACC, activity cutoff in Supplemental Table 1

With `CC1(C)[C@H](C(=O)O[C@H](C#N)c2cccc(Oc3ccccc3)c2)[C@@H]1C=C(Br)Br` [Deltamethrin] the EC50 ([1]; 5th percentile across active AC50 values per chemical, read-out: Minimum potency) was 1.6 µM, the “Difference of minimum potency between BrainSphere MEA assay and rNFA” value ([1]; 5th percentile of AC50 values by chemical, above 0.5 = more potent in the rNFA) was no more than 0.5 log10 µM and the “hitc Mean.Spheroid.Burst.Duration” value [1, 3] was 1. The “hitc Mean.Spheroid.Burst.ISI” value [1, 3] was 1, the “hitc Mean.Spheroid.Burst.Peak.Firing.Rate” value [1, 3] was 1 and the “hitc Mean.Spheroid.Firing.Rate” value [1, 3] was 1. For the same compound, the “hitc Mean.Spheroid.IBI” value [1, 3] was 1, the “hitc Mean.Spheroid.Nonburst.ISI” value [1, 3] was 1 and the “hitc Mean.Spheroid.Spikes.per.Burst” value [1, 3] was 1. For the same compound, the “hitc Mean.Spheroid.Spikes.per.Burst.per.Electrode” value [1, 3] was 1, the “hitc Spheroid.Burst.Frequency” value [1, 3] was 1 and the “hitc Spheroid.Spike.Amplitude.90th.Percentile” value [1, 3] was 1. The EC50 ([1]; Homo sapiens, 5th percentile across active AC50 values per chemical, read-out: Minimum potency) was 1 µM, the EC (benchmark response 1.349 SD) ([1]; Homo sapiens, tcplfit2 BMD at benchmark response (1.349*SD of baseline controls), read-out: BMD Mean.Spheroid.Burst.ISI) was 7.6 µM and the EC (benchmark response 1.349 SD) ([1]; Homo sapiens, tcplfit2 BMD at benchmark response (1.349*SD of baseline controls), read-out: BMD Mean.Spheroid.Nonburst.ISI) was 9.4 µM. The AC50 ([1]; Homo sapiens, concentration at 50% maximal activity, Supplement 3 prints it also for curves with hit call 0, read-out: ac50 Mean.Spheroid.Burst.Duration) was 3.3 µM, the AC50 ([1]; Homo sapiens, concentration at 50% maximal activity, Supplement 3 prints it also for curves with hit call 0, read-out: ac50 Mean.Spheroid.Burst.ISI) was 8.4 µM and the AC50 ([1]; Homo sapiens, concentration at 50% maximal activity, Supplement 3 prints it also for curves with hit call 0, read-out: ac50 Mean.Spheroid.Burst.Peak.Firing.Rate) was 3.8 µM. It also gave an AC50 ([1]; Homo sapiens, concentration at 50% maximal activity, Supplement 3 prints it also for curves with hit call 0, read-out: ac50 Mean.Spheroid.Firing.Rate) of 3.5 µM, an AC50 ([1]; Homo sapiens, concentration at 50% maximal activity, Supplement 3 prints it also for curves with hit call 0, read-out: ac50 Mean.Spheroid.IBI) of 10 µM and an AC50 ([1]; Homo sapiens, concentration at 50% maximal activity, Supplement 3 prints it also for curves with hit call 0, read-out: ac50 Mean.Spheroid.Nonburst.ISI) of 9.8 µM. It also gave an AC50 ([1]; Homo sapiens, concentration at 50% maximal activity, Supplement 3 prints it also for curves with hit call 0, read-out: ac50 Mean.Spheroid.Spikes.per.Burst) of 1.9 µM, an AC50 ([1]; Homo sapiens, concentration at 50% maximal activity, Supplement 3 prints it also for curves with hit call 0, read-out: ac50 Mean.Spheroid.Spikes.per.Burst.per.Electrode) of 1.4 µM and an AC50 ([1]; Homo sapiens, concentration at 50% maximal activity, Supplement 3 prints it also for curves with hit call 0, read-out: ac50 Spheroid.Burst.Frequency) of 5.9 µM. The AC50 ([1]; Homo sapiens, concentration at 50% maximal activity, Supplement 3 prints it also for curves with hit call 0, read-out: ac50 Spheroid.Spike.Amplitude.90th.Percentile) was 4 µM, the EC50 ([1]; Homo sapiens, mean across active AC50 values per chemical, read-out: Mean potency) was 4.45 µM and the AC50 ([1]; concentration at 50% maximal activity, Supplement 3 prints it also for curves with hit call 0, read-out: ac50 Mean.Spheroid.Burst.Duration) was 3.31 µM. It also gave an AC50 ([1]; concentration at 50% maximal activity, Supplement 3 prints it also for curves with hit call 0, read-out: ac50 Mean.Spheroid.Burst.ISI) of 8.39 µM, an AC50 ([1]; concentration at 50% maximal activity, Supplement 3 prints it also for curves with hit call 0, read-out: ac50 Mean.Spheroid.Burst.Peak.Firing.Rate) of 3.77 µM and an AC50 ([1]; concentration at 50% maximal activity, Supplement 3 prints it also for curves with hit call 0, read-out: ac50 Mean.Spheroid.Firing.Rate) of 3.49 µM. For the same compound, the AC50 ([1]; concentration at 50% maximal activity, Supplement 3 prints it also for curves with hit call 0, read-out: ac50 Mean.Spheroid.IBI) was 10.4 µM, the AC50 ([1]; concentration at 50% maximal activity, Supplement 3 prints it also for curves with hit call 0, read-out: ac50 Mean.Spheroid.Nonburst.ISI) was 9.81 µM and the AC50 ([1]; concentration at 50% maximal activity, Supplement 3 prints it also for curves with hit call 0, read-out: ac50 Mean.Spheroid.Spikes.per.Burst) was 1.85 µM. It also gave an AC50 ([1]; concentration at 50% maximal activity, Supplement 3 prints it also for curves with hit call 0, read-out: ac50 Mean.Spheroid.Spikes.per.Burst.per.Electrode) of 1.4 µM, an AC50 ([1]; concentration at 50% maximal activity, Supplement 3 prints it also for curves with hit call 0, read-out: ac50 Spheroid.Burst.Frequency) of 5.88 µM and an AC50 ([1]; concentration at 50% maximal activity, Supplement 3 prints it also for curves with hit call 0, read-out: ac50 Spheroid.Spike.Amplitude.90th.Percentile) of 3.97 µM. For the same compound, the EC50 ([1]; mean across active AC50 values per chemical, read-out: Mean potency) was 5.23 µM, the Percent active ([1]; metrics active out of the total number of metrics screened) was 100% and the “BMD Mean.Spheroid.Burst.Duration” value [1, 4] was 1.9 µM. The “BMD Mean.Spheroid.Burst.Peak.Firing.Rate” value [1, 4] was 2.4 µM, the “BMD Mean.Spheroid.Firing.Rate” value [1, 4] was 3.6 µM and the “BMD Mean.Spheroid.IBI” value [1, 4] was 9.6 µM. The “BMD Mean.Spheroid.Spikes.per.Burst” value [1, 4] was 1.2 µM, the “BMD Mean.Spheroid.Spikes.per.Burst.per.Electrode” value [1, 4] was 0.69 µM and the “BMD Spheroid.Burst.Frequency” value [1, 4] was 6 µM. For the same compound, the “BMD Spheroid.Spike.Amplitude.90th.Percentile” value [1, 4] was 1.6 µM, the “ACC Mean.Spheroid.Burst.Duration” value [1, 5] was 1.7 µM and the “ACC Mean.Spheroid.Burst.ISI” value [1, 5] was 7 µM. The “ACC Mean.Spheroid.Burst.Peak.Firing.Rate” value [1, 5] was 2.2 µM, the “ACC Mean.Spheroid.Firing.Rate” value [1, 5] was 5.2 µM and the “ACC Mean.Spheroid.IBI” value [1, 5] was 10 µM. The “ACC Mean.Spheroid.Nonburst.ISI” value [1, 5] was 9.6 µM, the “ACC Mean.Spheroid.Spikes.per.Burst” value [1, 5] was 2 µM and the “ACC Mean.Spheroid.Spikes.per.Burst.per.Electrode” value [1, 5] was 0.92 µM. For the same compound, the “ACC Spheroid.Burst.Frequency” value [1, 5] was 5.1 µM, the “ACC Spheroid.Spike.Amplitude.90th.Percentile” value [1, 5] was 2.2 µM and the Hits ([1]; total number of active endpoints out of 10 MEA activity metrics, 13-day exposure) was 10. The EC50 ([2]; read-out: Mean potency in the hNNF) was 3.53 µM, the EC50 ([2]; read-out: Minimum potency in the hNNF) was 2.74 µM and the “hitc CCTE_Shafer_MEA_dev_LDH” value (2D rat cortical cultures; rNFA mc5 hit call) was 0.

In the case of `CN(C)C(=O)C(CCN1CCC(O)(c2ccc(Cl)cc2)CC1)(c1ccccc1)c1ccccc1` [Loperamide], the “ACC Mean.Spheroid.Burst.Duration” value [1] is reported as 0.076 µM, the “ACC Mean.Spheroid.Burst.ISI” value [1] is reported as 0.019 µM and the “ACC Mean.Spheroid.Burst.Peak.Firing.Rate” value [1] is reported as 0.065 µM. The “ACC Mean.Spheroid.Firing.Rate” value [1] was 0.036 µM, the “ACC Mean.Spheroid.IBI” value [1] was 0.9 µM and the “ACC Mean.Spheroid.Nonburst.ISI” value [1] was 0.97 µM. The “ACC Mean.Spheroid.Spikes.per.Burst” value [1] was 0.08 µM, the “ACC Mean.Spheroid.Spikes.per.Burst.per.Electrode” value [1] was 0.082 µM and the “ACC Spheroid.Burst.Frequency” value [1] was 0.026 µM. The “ACC Spheroid.Spike.Amplitude.90th.Percentile” value [1] was 6.6 µM, the “BMD Mean.Spheroid.Burst.Duration” value [1] was 0.087 µM and the “BMD Mean.Spheroid.Burst.Peak.Firing.Rate” value [1] was 0.071 µM. For the same compound, the “BMD Mean.Spheroid.Firing.Rate” value [1] was 0.025 µM, the “BMD Mean.Spheroid.IBI” value [1] was 0.83 µM and the “BMD Mean.Spheroid.Spikes.per.Burst” value [1] was 0.054 µM. For the same compound, the “BMD Mean.Spheroid.Spikes.per.Burst.per.Electrode” value [1] was 0.07 µM, the “BMD Spheroid.Burst.Frequency” value [1] was 0.031 µM and the “BMD Spheroid.Spike.Amplitude.90th.Percentile” value [1] was 2.6 µM. The “Bioactivity trend over time for MFR, mean spike amplitude and burst frequency (qualitative)” value [1] was “appeared to decrease activity”, the “Difference of minimum potency between BrainSphere MEA assay and rNFA” value [1] was no more than 0.5 log10 µM and the Percent active [1] was 100%. For the same compound, the “hitc Mean.Spheroid.Burst.Duration” value [1] was 1, the “hitc Mean.Spheroid.Burst.ISI” value [1] was 1 and the “hitc Mean.Spheroid.Burst.Peak.Firing.Rate” value [1] was 1. For the same compound, the “hitc Mean.Spheroid.Firing.Rate” value [1] was 1, the “hitc Mean.Spheroid.IBI” value [1] was 1 and the “hitc Mean.Spheroid.Nonburst.ISI” value [1] was 1. The “hitc Mean.Spheroid.Spikes.per.Burst” value [1] was 1, the “hitc Mean.Spheroid.Spikes.per.Burst.per.Electrode” value [1] was 1 and the “hitc Spheroid.Burst.Frequency” value [1] was 1. For the same compound, the “hitc Spheroid.Spike.Amplitude.90th.Percentile” value [1] was 1, the EC (benchmark response 1.349 SD) ([1]; Homo sapiens, read-out: BMD Mean.Spheroid.Burst.ISI) was 0.04 µM and the EC (benchmark response 1.349 SD) ([1]; Homo sapiens, read-out: BMD Mean.Spheroid.Nonburst.ISI) was 0.95 µM. The AC50 ([1]; Homo sapiens, read-out: ac50 Mean.Spheroid.Burst.Duration) was 0.14 µM, the AC50 ([1]; Homo sapiens, read-out: ac50 Mean.Spheroid.Burst.ISI) was 0.1 µM and the AC50 ([1]; Homo sapiens, read-out: ac50 Mean.Spheroid.Burst.Peak.Firing.Rate) was 0.12 µM. The AC50 ([1]; Homo sapiens, read-out: ac50 Mean.Spheroid.Firing.Rate) was 0.023 µM, the AC50 ([1]; Homo sapiens, read-out: ac50 Mean.Spheroid.IBI) was 0.91 µM and the AC50 ([1]; Homo sapiens, read-out: ac50 Mean.Spheroid.Nonburst.ISI) was 0.99 µM. For the same compound, the AC50 ([1]; Homo sapiens, read-out: ac50 Mean.Spheroid.Spikes.per.Burst) was 0.073 µM, the AC50 ([1]; Homo sapiens, read-out: ac50 Mean.Spheroid.Spikes.per.Burst.per.Electrode) was 0.094 µM and the AC50 ([1]; Homo sapiens, read-out: ac50 Spheroid.Spike.Amplitude.90th.Percentile) was 8.9 µM. For the same compound, the AC50 ([1]; read-out: ac50 Mean.Spheroid.Burst.Duration) was 0.145 µM, the AC50 ([1]; read-out: ac50 Mean.Spheroid.Burst.ISI) was 0.103 µM and the AC50 ([1]; read-out: ac50 Mean.Spheroid.Burst.Peak.Firing.Rate) was 0.115 µM. The AC50 ([1]; read-out: ac50 Mean.Spheroid.Nonburst.ISI) was 0.989 µM, the AC50 ([1]; read-out: ac50 Spheroid.Spike.Amplitude.90th.Percentile) was 8.93 µM and the AC50 (2D rat cortical cultures; read-out: ac50 CCTE_Shafer_MEA_dev_LDH, rNFA mc5) was 2.94 µM.
